{"source": "paper PMC12406258", "about": "“Uncovering the Unusual Inhibition Mechanism of a Trypanosome Alternative Oxidase Inhibitor Displaying Broad-Spectrum Activity against African Animal Trypanosomes” (Journal of Medicinal Chemistry, 2025)", "key": {"[1]": {"test_system": "T. b. brucei SUR10", "assay": "microbe, parasite or virus in culture", "type": "cell-based", "conditions": "Trypanosoma brucei, read-out: SUR10 EC50"}, "[2]": {"test_system": "T. evansi WT", "assay": "Resazurin-based drug sensitivity assay, T. evansi WT", "type": "cell-based", "method": "(§1) Other Trypanosoma species used in this study include T. evansi AntTat 3/3 (Wild-type); and T. equiperdum BoTat 1 (Bordeaux trypanozoon antigenic type 1) P (wild-type). All the trypanosomes were used only as bloodstream trypomastigotes and cultured in the standard Hirumi’s Modified Iscove’s medium #9 (HMI-9), supplemented with 10% heat-inactivated Fetal Bovine Serum (FBS), 14 μL/L β-mercaptoethanol, and 3.0 g sodium hydrogen carbonate per liter of medium (pH 7.4). Trypanosomes were cultured in vented flasks at 37 °C in a 5% CO2 atmosphere.\n(§2) Briefly, this protocol involves preparing a 96-well cell culture plate with a 100 μL serially diluted test compound (200 μM top concentration) in HMI-9 + 10% FBS (24 wells per control drug or test compound, with the 24th well serving as drug-free). This is followed by adjusting the cell density of mid-log-phase trypanosome cultures to the required concentration of 2 × 10^5 cells/mL (2 × 10^4 cells/well). […] All incubations were carried out at 37 °C with 5% CO2. […] EC50 values were calculated using GraphPad Prism 9.0 software via nonlinear regression with an equation for a sigmoidal dose–response curve with variable slope (GraphPad Software Inc., San Diego, CA, USA)."}, "[3]": {"assay": "Stability in PBS buffer", "conditions": "37 °C"}, "[4]": {"test_system": "Human Embryonic Kidney (HEK) 293-T cells", "assay": "Cytotoxicity assay using Human Embryonic Kidney (HEK) 293 cells", "experimental": "In brief, HEK cells were grown in a culture made of 500 mL Dulbecco’s Modified Eagle’s Medium (DMEM) (Sigma), 50 mL New-born Calf Serum (NBCS) (Gibco), 5 mL L-Glutamax (200 mM, Gibco), and 5 mL Penicillin/ [..."}, "[5]": {"test_system": "T. brucei aqp1-3 null", "assay": "microbe, parasite or virus in culture", "type": "cell-based, T. b. brucei", "conditions": "Trypanosoma brucei, read-out: aqp1-3 null EC50", "method": "as §1, §2"}, "[6]": {"test_system": "T. brucei B48", "assay": "microbe, parasite or virus in culture", "type": "cell-based, T. b. brucei", "conditions": "Trypanosoma brucei, read-out: T. brucei B48 EC50", "method": "as §1, §2"}, "[7]": {"test_system": "T. b. brucei WT (s427) trypomastigotes", "assay": "microbe, parasite or virus in culture", "type": "cell-based", "conditions": "Trypanosoma brucei", "method": "as §1, §2"}, "[8]": {"target": "T1, recombinant TAO (ΔMTS rTAO) (Trypanosoma brucei brucei, UniProt Q26710)", "T1 construct": "[…]; SUMO (Small Ubiquitin-related Modifier) fusion from the expression system; made in house", "T1 sequence (Q26710 26-329, stated change not applied)": "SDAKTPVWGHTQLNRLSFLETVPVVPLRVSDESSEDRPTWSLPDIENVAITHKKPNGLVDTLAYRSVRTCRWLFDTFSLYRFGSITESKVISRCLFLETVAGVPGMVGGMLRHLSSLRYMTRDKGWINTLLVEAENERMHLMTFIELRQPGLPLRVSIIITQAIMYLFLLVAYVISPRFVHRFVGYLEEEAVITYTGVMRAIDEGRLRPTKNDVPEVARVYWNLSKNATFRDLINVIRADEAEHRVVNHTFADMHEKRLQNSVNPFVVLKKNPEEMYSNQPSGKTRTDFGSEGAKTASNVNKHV", "assay": "Inhibition of ubiquinol oxidase activity of purified recombinant TAO", "type": "biochemical, T. brucei", "method": "This physiologically relevant rTAO enzyme was used throughout this work and in this experiment to study the inhibitory activity of 1.\nAs previously described, the Ubiquinol oxidase activity measurement was carried out using recombinant TAO lacking the mitochondrial targeting signal (ΔMTS). […] The reaction was carried out in a 1 cm cuvette for 2 min using a V-630 Jasco UV–vis spectrophotometer (Jasco Corporation, Tokyo, Japan). Briefly, the procedure involves preincubating 250 ng of the enzyme for 2 min in a 50 mM Tris-HCl (pH 7.3) buffer containing the detergent octaethylene glycol monododecylether (0.05% (w/v)) in a total reaction volume of 1 mL at 25 °C. […] For the inhibition reaction, 250 ng of the enzyme was preincubated with varying inhibitor concentrations for 2 min using the same buffer before the substrate was added. […] This was achieved using the same protocol but without TAO. […] The residual activities were plotted against the corresponding inhibitor concentration in a GraphPad Prism-9 software to obtain the IC50 value."}, "[9]": {"test_system": "T. brucei", "assay": "DNA configuration by fluorescence microscopy after DAPI staining", "type": "cell-based", "conditions": "2 × EC50, by 24 h", "from_the_text": "To assess the cause of the apparent 24-h growth arrest visualized in Figure , we assessed the cellular DNA content by flow cytometry of fixed trypanosomes stained with the nucleic acid dye propidium iodide after RNase treatment. […] This indicates an inability to initiate new synthesis of nuclear DNA, while cells that already past that checkpoint were able to complete cell division. […] In T. brucei, the first phase of the cell cycle is the replication of the kinetoplast, before the subsequent duplication of the nucleus. Thus, at the start of the experiment (t = 0 h) an equal percentage of cells in the “compound 1” and “untreated control” cultures contained a single nucleus and kinetoplast (1N1K) or were in the initial stages of cell division with 2 kinetoplasts (1N2K) (Figure B). […] These observations strengthen our conclusion that treatment with 1 stops the initiation of a new cell division cycle, and specifically the replication of the kinetoplast that must precede nuclear DNA synthesis in trypanosomes. […]\nThe configuration of nuclei and kinetoplast DNA of treated and untreated T. brucei was visualized using a Vectashield mounting medium with the dye 4,6-diamidino-2-phenylindole (DAPI) (Vector Lab. CA, USA), as described. […] At least 500 cells were scored per slide for the number of kinetoplasts (K) and nuclei (N) as 1N1K, 1N2K, 2N2K, or other."}, "[10]": {"assay": "Microsomal stability, human liver microsomes", "type": "in vitro ADME", "conditions": "both sexes, pH 7.4, 0.5 mg/mL microsomes, NADPH", "method": "Pooled mixed gender human liver microsomes (HLMs) and Pooled CD1 mouse liver microsomes (female) were purchased from Tebubio. The NADPH regenerating system was purchased from Promega. All other reagents and solvents were of special or analytical grade and were commercially available. The assays were performed according to a reported protocol with small changes. […] The reactions were initiated by adding liver microsomes at a final concentration of 0.5 mg/mL in a total volume of 250 μL. […] The supernatants were analyzed with LC/MS for the amount of parent compound remaining, and the CLint and t 1/2 were determined."}}, "note": "Values joined by “and” are separate entries in the source; they are usually repeats but may differ in a detail not shown here. Identical values can stand only once. Like-named read-outs stand apart in the source and are kept apart here."}
{"smiles": "Cc1cc(O)ccc1C(=O)OCCCCCCCCCCCCCC[P+](c1ccccc1)(c1ccccc1)c1ccccn1.[Br-]", "note": "[Compound 1, {14-[(4-Hydroxy-2-methylbenzoyl)-oxy]-tetradecyl}-diphenyl(pyridin-2-yl)-Phosphonium Bromide]", "values": [{"measurement": "EC50", "setting": "[1]", "value": "3.6 ± 0.9", "unit": "nM"}, {"measurement": "EC50", "setting": "[2]", "value": "1.2 ± 0.1", "unit": "nM"}, {"measurement": "Stability in PBS buffer", "setting": "[3]", "value": "≥ 1", "unit": "h"}, {"measurement": "SI (selectivity index) for T. congolense", "setting": "[4]", "value": 182}, {"measurement": "HEK EC50 (CC50, cytotoxicity)", "setting": "[4]; HEK 293-T cells, n = 3", "value": "7490 nM and 7490 ± 100 nM"}, {"measurement": "HEK SI (selectivity index)", "setting": "[4]; SI = CC50 of HEK/EC50 of T. b. b WT (no glycerol)", "value": 2385}, {"measurement": "EC50", "setting": "[5]", "value": "1.2 ± 0.13", "unit": "nM"}, {"measurement": "EC50", "setting": "[6]", "value": "2.5 ± 0.1", "unit": "nM"}, {"measurement": "EC50", "setting": "[7]; read-out: T. b. brucei WT (+5 mM glycerol) EC50, incubated in the presence of 5 mM glycerol", "value": "1.4 ± 0.5", "unit": "nM"}, {"measurement": "EC50", "setting": "[7]; s427, no glycerol, n ≥ 4, read-out: T. b. brucei WT (no glycerol) EC50", "value": "3.1 ± 0.6", "unit": "nM"}, {"measurement": "IC50", "setting": "[8]", "value": "1.3 ± 0.07", "unit": "nM"}, {"measurement": "Percentage of 1N1K cells", "setting": "[9]", "value": 100, "unit": "%"}, {"measurement": "microsomal CLint at 1 μM", "setting": "[10]; read-out: CLint,met in human microsomes", "value": "216 ± 2.3", "unit": "µL/min/mg"}, {"measurement": "half-life at 1 μM", "setting": "[10]; read-out: t1/2 in human microsomes", "value": 6.2, "unit": "min"}]}
